Data set [1] deals with T1, Solute carrier family 22 member 1 (Rattus norvegicus, UniProt Q63089).
T1 sequence (Q63089 whole entry): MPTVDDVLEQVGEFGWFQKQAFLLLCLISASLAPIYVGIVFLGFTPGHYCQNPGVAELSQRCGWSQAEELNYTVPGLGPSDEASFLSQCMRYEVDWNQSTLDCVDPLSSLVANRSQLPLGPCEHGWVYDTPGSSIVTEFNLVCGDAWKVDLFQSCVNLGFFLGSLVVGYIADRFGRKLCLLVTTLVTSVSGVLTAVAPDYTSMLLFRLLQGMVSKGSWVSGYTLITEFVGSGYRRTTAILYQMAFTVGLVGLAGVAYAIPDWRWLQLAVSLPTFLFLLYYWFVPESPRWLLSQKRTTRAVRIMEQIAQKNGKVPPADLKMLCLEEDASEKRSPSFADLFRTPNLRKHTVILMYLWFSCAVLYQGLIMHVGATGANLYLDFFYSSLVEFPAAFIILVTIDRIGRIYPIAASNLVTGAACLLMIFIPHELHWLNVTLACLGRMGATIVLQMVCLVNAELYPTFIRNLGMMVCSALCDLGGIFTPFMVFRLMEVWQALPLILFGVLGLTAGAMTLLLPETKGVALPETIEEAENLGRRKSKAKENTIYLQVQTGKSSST
Description: TP_TRANSPORTER: inhibition of TEA uptake in Xenopus laevis oocytes. In kind it is functional, cell-based, Oocyte.

Substrate in data set [2]: CC[N+](CC)(CC)CC
Description: cells, lysate or membranes named.

For six molecules, Ki and Km results are on record in ChEMBL document CHEMBL2074281, “Drug excretion mediated by a new prototype of polyspecific transporter” (Nature, 1994).

Usually Ki stands for a measure of affinity in units of concentration, obtained from inhibition or displacement. Low values mean a stronger hold on the target, high ones a looser hold on the target. For the molecule `COC(=O)[C@H]1[C@H]2C[C@@H]3c4[nH]c5cc(OC)ccc5c4CCN3C[C@H]2C[C@@H](OC(=O)c2cc(OC)c(OC)c(OC)c2)[C@@H]1OC` [RESERPINE], the Ki in data set [1] was above 20 µM.

Molecule `CNC(=O)c1cccnc1` [NICOTINYL METHYLAMIDE] gave a Ki in data set [1] of 1000 µM.

In the case of `COc1cc(C(O)CNC(C)C)ccc1O` (stereo unspecified) [METIPRENALINE], the Ki in data set [1] is 43 µM.

Turning to `C[C@]12C[C@H](O)[C@H]3[C@@H](CCC4=CC(=O)CC[C@@]43C)[C@@H]1CC[C@@H]2C(=O)CO` [CORTICOSTERONE], the Ki in data set [1] was above 10 µM.

With `CC[n+]1c(CC2C=C(C)N=C(c3ccccc3)N2C)ccc2ccccc21` (stereo unspecified) [Cyanine-863], the Ki in data set [1] worked out at 0.13 µM.

B1: Solute carrier family 22 member 1 (Rattus norvegicus) (protein)
chain: MPTVDDVLEQVGEFGWFQKQAFLLLCLISASLAPIYVGIVFLGFTPGHYCQNPGVAELSQRCGWSQAEELNYTVPGLGPSDEASFLSQCMRYEVDWNQSTLDCVDPLSSLVANRSQLPLGPCEHGWVYDTPGSSIVTEFNLVCGDAWKVDLFQSCVNLGFFLGSLVVGYIADRFGRKLCLLVTTLVTSVSGVLTAVAPDYTSMLLFRLLQGMVSKGSWVSGYTLITEFVGSGYRRTTAILYQMAFTVGLVGLAGVAYAIPDWRWLQLAVSLPTFLFLLYYWFVPESPRWLLSQKRTTRAVRIMEQIAQKNGKVPPADLKMLCLEEDASEKRSPSFADLFRTPNLRKHTVILMYLWFSCAVLYQGLIMHVGATGANLYLDFFYSSLVEFPAAFIILVTIDRIGRIYPIAASNLVTGAACLLMIFIPHELHWLNVTLACLGRMGATIVLQMVCLVNAELYPTFIRNLGMMVCSALCDLGGIFTPFMVFRLMEVWQALPLILFGVLGLTAGAMTLLLPETKGVALPETIEEAENLGRRKSKAKENTIYLQVQTGKSSST
One may read the Km as the substrate concentration at which the rate is half of its maximum. Consider B1, for which, in data set [2], the Km was 95 µM.
